Tests used:
Format in all cases: physicochemical
[1] = Relative stability of Form A hydrate and Form C anhydrate in ethanol and ethanol/water slurries
Experimental: The relative stability of the crystalline Form A hydrate and Compound 1 crystalline Form C anhydrate was evaluated in ethanol and ethanol/water between ambient temperature and 50° C.
Crystalline Form C anhydrate was prepared by slurrying crystalline Form A hydrate in absolute ethanol at 40° C. for about two days (Sample 1, FIG. 25A). Attempts to prepare amorphous material by cold precipitation and lyophilization were carried out but were unsuccessful. […] The lyophilization experiment produced material having an XRPD pattern consistent with crystalline Form E DMSO solvate (FIG. 25C).
To prepare the crystalline Form C anhydrate, 249 mg of Compound 1 crystalline Form A hydrate was placed in an 8 mL glass vial followed by 2.0 mL of absolute ethanol. The resulting slurry was stirred magnetically at 40° C. for about two days. The slurry was vacuum filtered and the solids allowed to air dry for 15 minutes at room temperature.

[2] = Dynamic vapor sorption (DVS) analysis; conditions: 25° C., 5 to 95% RH
Experimental: Different polymorphic forms of a compound may have different hygroscopic properties. […] A sample weight of less than 10 mg was loaded into a metal-coated quartz pan for analysis. The sample was analyzed at 25° C. after equilibrated to 5% relative humidity (RH) in 10% RH steps from 5 to 95% RH (adsorption cycle) and from 95 to 5% RH (desorption cycle). The movement from one step to the next occurred either after satisfying the equilibrium criterion of 0.01% weight change in 5 minutes or, if the equilibrium criterion was not met, after 90 minutes. The percent weight change values are calculated using Microsoft Excel®. The DVS analysis was carried out using a TA Instruments Q5000 Dynamic Vapor Sorption analyzer. […]

[3] = Conversion rate of crystalline Form A hydrate to crystalline Form C anhydrate in ethanol at about 50° C., XRPD; conditions: slurry in absolute ethanol at about 50° C., 1 hour
Experimental: The conversion rate of the crystalline Form A hydrate to the crystalline Form C anhydrate in ethanol at about 50° C. was investigated (Table 25). Slurries were prepared using Compound 1 crystalline Form A hydrate as starting material. […] Each slurry was stirred magnetically at about 50° C. and subsequently vacuum filtered to collect the solid at given times. The resulting solids were analyzed by XRPD immediately. […] A Rigaku SmartLab X-Ray Diffractometer was configured in Bragg-Brentano reflection geometry equipped with a beam stop and knife edge to reduce incident beam and air scatter. […] Spinning rate of 17 rpm was used for crystalline Form C anhydrate analysis. Other parameters are the same as described in Table 27.

[4] = Slurry experiments using Compound 1 crystalline Form A hydrate in methanol and methanol:water, XRPD; conditions: two days, 30 mg
Experimental: The nature of this peak is unknown. […]
(§1) A Rigaku SmartLab X-Ray Diffractometer was configured in Bragg-Brentano reflection geometry equipped with a beam stop and knife edge to reduce incident beam and air scatter. No filter was used for crystalline Form C anhydrate crystalline Form E DMSO solvate. Spinning rate of 17 rpm was used for crystalline Form C anhydrate analysis. Other parameters are the same as described in Table 27.

[5] = Stability study of crystalline Forms A and C at 25° C./60% RH and 40° C./75% RH, analysed by XRPD; conditions: after 4 weeks
Experimental: A sample of each of crystalline Forms A and C was placed in an uncapped vial and exposed to 25° C./60% RH and 40° C./75% relative humidity (“RH”) for 4 weeks (Table 24). The resultant samples were analyzed by XRPD at T=1, 2, and 4 weeks to evaluate their physical stability.
as §1

[6] = listed as Compound 1 crystalline Form A hydrate

Row | SMILES | form conversion ([1]; absolute ethanol, about 40° C., about two days) | relative stability (form conversion) ([1]; ethanol and ethanol/water, between ambient temperature and 50° C.) | form conversion ([1]; ethanol at about 50° C., slurrying for four days) | hygroscopicity (DVS) ([2]; listed as Compound 1 Crystalline Form A hydrate) | DVS weight gain [2, 6] | hygroscopicity (DVS) [2, 6] | XRPD Result [3] | XRPD Result ([4]; 95:5 MeOH:water) | XRPD Result ([4]; MeOH) | crystalline Form conversion (physical stability) [5] | DVS weight gain ([2]; listed as Compound 1 Crystalline Form C anhydrate) | DVS weight gain ([2]; listed as Compound 1 crystalline Form C anhydrate)
1 | CN1Oc2cc3c(c4cccc(c24)C1=O)[C@H](CCl)CN3C(=O)c1cc2cc(NC(=O)c3cc4ccccc4[nH]3)ccc2[nH]1 [Crystalline Form A hydrate, (S)—N-(2-(10-(Chloromethyl)-5-methyl-4-oxo-5,8,9,10-tetrahydro-4H-pyrrolo[3′,2′: 5,6]naphtho[1,8-de][1,2]oxazine-8-carbonyl)-1H-indol-5-yl)-1H-indole-2-carboxamide] | converts to the crystalline Form C anhydrate | converted to the crystalline Form C anhydrate except when the water activity of the solvent was greater than 0.31 | converted to crystalline Form C anhydrate | Slightly hygroscopic | less than 0.5% | slightly hygroscopic | converted to crystalline Form C anhydrate completely | remained that of the crystalline Form A hydrate | remained that of the crystalline Form A hydrate | No crystalline Form conversion was observed | – | –
2 | CN1Oc2cc3c(c4cccc(c24)C1=O)[C@H](CCl)CN3C(=O)c1cc2cc(NC(=O)c3cc4ccccc4[nH]3)ccc2[nH]1 [Crystalline Form C anhydrate, (S)—N-(2-(10-(Chloromethyl)-5-methyl-4-oxo-5,8,9,10-tetrahydro-4H-pyrrolo[3′,2′: 5,6]naphtho[1,8-de][1,2]oxazine-8-carbonyl)-1H-indol-5-yl)-1H-indole-2-carboxamide] | – | – | – | – | – | – | – | – | – | – | Weight gain of 0.35% at 5-95% RH | 0.35%
